Measurements as given in patent publication US6737383B1, “Herbicidal oxadiazolidines” (priority 1999, dated 2004).

Key:
sugar beet = assay: Test B pre/postemergence sugar beet; type: in vivo, Beta vulgaris
In short: (§1)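 Test chemicals in a non-phytotoxic solvent mixture with surfactant were sprayed preemergence onto planted seeds and postemergence onto plants 2 to 18 cm tall (1- to 4-leaf stage). After twelve to sixteen days in a greenhouse, injury was visually rated against untreated controls from 0 (no effect) to 10 (complete control).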

pigweed = assay: Test B pre/postemergence pigweed; type: in vivo, Amaranthus retroflexus
In short: as §1

surinam grass = assay: Test B pre/postemergence surinam grass; type: in vivo, Brachiaria decumbens
In short: as §1

velvetleaf = assay: Test B pre/postemergence velvetleaf; type: in vivo, Abutilon theophrasti
In short: as §1

morningglory = assay: Test B pre/postemergence morningglory; type: in vivo, Ipomoea hederacea
In short: as §1

cocklebur = assay: Test B pre/postemergence cocklebur; type: in vivo, Xanthium strumarium
In short: as §1

blackgrass = assay: Test B pre/postemergence blackgrass; type: in vivo, Alopecurus myosuroides
In short: as §1

soybean = assay: Test B pre/postemergence soybean; type: in vivo, Glycine max
In short: as §1

bedstraw = assay: Test B pre/postemergence bedstraw; type: in vivo, Galium aparine
In short: as §1

wheat = assay: Test B pre/postemergence wheat; type: in vivo, Triticum aestivum
In short: as §1

purple nutsedge = assay: Test B pre/postemergence purple nutsedge; type: in vivo, Cyperus rotundus
In short: as §1

rape = assay: Test B pre/postemergence rape; type: in vivo, Brassica napus
In short: as §1

corn = assay: Test B pre/postemergence corn; type: in vivo, Zea mays
In short: as §1

crabgrass = assay: Test B pre/postemergence crabgrass; type: in vivo, Digitaria sanguinalis
In short: as §1

giant foxtail = assay: Test B pre/postemergence giant foxtail; type: in vivo, Setaria faberii
In short: as §1

wild oat = assay: Test B pre/postemergence wild oat; type: in vivo, Avena fatua
In short: as §1

[1] = Postemergence, Rate 62 g/ha, scale of 0 to 10, 0 is no effect, 10 is complete control
[2] = Postemergence, Rate 125 g/ha, scale 0 to 10, 0 is no effect, 10 is complete control
[3] = Postemergence, Rate 500 g/ha, scale 0 to 10, 0 is no effect, 10 is complete control
[4] = Preemergence, Rate 62 g/ha, scale 0 to 10 (0 no effect, 10 complete control)
[5] = Preemergence, Rate 125 g/ha, scale 0 to 10, 0 is no effect, 10 is complete control
[6] = Preemergence, Rate 500 g/ha, scale of 0 to 10 where 0 is no effect and 10 is complete control
[7] = Rate 250 g/ha, Postemergence, scale of 0 to 10 where 0 is no effect and 10 is complete control

Cc1noc(C)c1Cn1c(=O)on(C(=O)N(c2ccc(Cl)cc2)C(C)C)c1=O [Compound 540]
Sugarbeets plant response rating (sugar beet; [1]): 0 | Sugarbeets plant response rating (sugar beet; [2]): 2 | Plant response rating, Sugarbeets (sugar beet; [3]): 6 | Sugarbeets plant response rating (sugar beet; [4]): 0 | Sugarbeets plant response rating (sugar beet; [5]): 0 | Sugarbeets plant response rating (0 to 10 scale) (sugar beet; Preemergence, Rate 250 g/ha): 0 | Sugarbeets plant response rating (sugar beet; [6]): 4 | Plant response rating, Sugarbeets (sugar beet; [7]): 6 | Redroot pigweed plant response rating (pigweed; [1]): 0 | Redroot pigweed plant response rating (pigweed; [2]): 0 | Plant response rating, Redroot pigweed (pigweed; [3]): 2 | Redroot pigweed plant response rating (pigweed; [4]): 0 | Redroot pigweed plant response rating (pigweed; [5]): 0 | Redroot pigweed plant response rating (0 to 10 scale) (pigweed; Preemergence, Rate 250 g/ha): 3 | Redroot pigweed plant response rating (pigweed; [6]): 10 | Plant response rating, Redroot pigweed (pigweed; [7]): 2 | B. signalgrass plant response rating (surinam grass; [1]): 0 | B. signalgrass plant response rating (surinam grass; [2]): 0 | Plant response rating, B. signalgrass (surinam grass; [3]): 3 | B. signalgrass plant response rating (surinam grass; [4]): 0 | B. signalgrass plant response rating (surinam grass; [5]): 0 | B. signalgrass plant response rating (0 to 10 scale, 0 is no effect, 10 is complete control) (surinam grass; Preemergence, Rate 250 g/ha): 0 | B. signalgrass plant response rating (surinam grass; [6]): 8 | Plant response rating, B. signalgrass (surinam grass; [7]): 0 | Velvetleaf plant response rating (velvetleaf; [1]): 0 | Velvetleaf plant response rating (velvetleaf; [2]): 0 | Plant response rating, Velvetleaf (velvetleaf; [3]): 1 | Velvetleaf plant response rating (velvetleaf; [4]): 0 | Velvetleaf plant response rating (velvetleaf; [5]): 0 | Velvetleaf plant response rating (0 to 10 scale) (velvetleaf; Preemergence, Rate 250 g/ha): 0 | Velvetleaf plant response rating (velvetleaf; [6]): 0 | Plant response rating, Velvetleaf (velvetleaf; [7]): 0 | Morningglory plant response rating (morningglory; [1]): 2 | Morningglory plant response rating (morningglory; [2]): 4 | Plant response rating, Morningglory (morningglory; [3]): 6 | Morningglory plant response rating (morningglory; [4]): 0 | Morningglory plant response rating (morningglory; [5]): 0 | Morningglory plant response rating (0 to 10 scale) (morningglory; Preemergence, Rate 250 g/ha): 0 | Morningglory plant response rating (morningglory; [6]): 0 | Plant response rating, Morningglory (morningglory; [7]): 5 | Cocklebur plant response rating (cocklebur; [1]): 0 | Cocklebur plant response rating (cocklebur; [2]): 0 | Plant response rating, Cocklebur (cocklebur; [3]): 0 | Cocklebur plant response rating (cocklebur; [4]): 0 | Cocklebur plant response rating (cocklebur; [5]): 0 | Cocklebur plant response rating (0 to 10 scale) (cocklebur; Preemergence, Rate 250 g/ha): 9 | Cocklebur plant response rating (cocklebur; [6]): 10 | Plant response rating, Cocklebur (cocklebur; [7]): 0 | Blackgrass plant response rating (blackgrass; [1]): 0 | Blackgrass plant response rating (blackgrass; [2]): 0 | Plant response rating, Blackgrass (blackgrass; [3]): 7 | Blackgrass plant response rating (blackgrass; [4]): 0 | Blackgrass plant response rating (blackgrass; [5]): 0 | Blackgrass plant response rating (0 to 10 scale) (blackgrass; Preemergence, Rate 250 g/ha): 0 | Blackgrass plant response rating (blackgrass; [6]): 9 | Plant response rating, Blackgrass (blackgrass; [7]): 2 | Soybean plant response rating (soybean; [1]): 1 | Soybean plant response rating (soybean; [2]): 1 | Plant response rating, Soybean (soybean; [3]): 1 | Soybean plant response rating (soybean; [4]): 0 | Soybean plant response rating (soybean; [5]): 0 | Soybean plant response rating (0 to 10 scale) (soybean; Preemergence, Rate 250 g/ha): 0 | Soybean plant response rating (soybean; [6]): 0 | Plant response rating, Soybean (soybean; [7]): 1 | Bedstraw plant response rating (bedstraw; [1]): 0 | Bedstraw plant response rating (bedstraw; [2]): 3 | Plant response rating, Bedstraw (bedstraw; [3]): 9 | Bedstraw plant response rating (bedstraw; [4]): 0 | Bedstraw plant response rating (bedstraw; [5]): 0 | Bedstraw plant response rating (0 to 10 scale) (bedstraw; Preemergence, Rate 250 g/ha): 0 | Bedstraw plant response rating (bedstraw; [6]): 0 | Plant response rating, Bedstraw (bedstraw; [7]): 10 | Wheat plant response rating (wheat; [1]): 0 | Wheat plant response rating (wheat; [2]): 0 | Plant response rating, Wheat (wheat; [3]): 0 | Wheat plant response rating (wheat; [4]): 0 | Wheat plant response rating (wheat; [5]): 0 | Wheat plant response rating (0 to 10 scale) (wheat; Preemergence, Rate 250 g/ha): 0 | Wheat plant response rating (wheat; [6]): 0 | Plant response rating, Wheat (wheat; [7]): 0 | Nutsedge plant response rating (purple nutsedge; [1]): 0 | Nutsedge plant response rating (purple nutsedge; [2]): 0 | Plant response rating, Nutsedge (purple nutsedge; [3]): 0 | Nutsedge plant response rating (purple nutsedge; [5]): 0 | Nutsedge plant response rating (0 to 10 scale) (purple nutsedge; Preemergence, Rate 250 g/ha): 0 | Nutsedge plant response rating (purple nutsedge; [6]): 0 | Plant response rating, Nutsedge (purple nutsedge; [7]): 0 | Rape plant response rating (rape; [1]): 0 | Rape plant response rating (rape; [2]): 2 | Rape plant response rating (rape; [4]): 0 | Rape plant response rating (rape; [5]): 0 | Rape plant response rating (0 to 10 scale) (rape; Preemergence, Rate 250 g/ha): 2 | Rape plant response rating (rape; [6]): 7 | Plant response rating, Rape (rape; [7]): 7 | Corn plant response rating (corn; [1]): 0 | Corn plant response rating (corn; [2]): 0 | Plant response rating, Corn (corn; [3]): 0 | Corn plant response rating (corn; [4]): 0 | Corn plant response rating (corn; [5]): 0 | Corn plant response rating (0 to 10 scale) (corn; Preemergence, Rate 250 g/ha): 0 | Corn plant response rating (corn; [6]): 2 | Plant response rating, Corn (corn; [7]): 0 | Crabgrass plant response rating (crabgrass; [1]): 5 | Crabgrass plant response rating (crabgrass; [2]): 5 | Plant response rating, Crabgrass (crabgrass; [3]): 8 | Crabgrass plant response rating (crabgrass; [4]): 8 | Crabgrass plant response rating (crabgrass; [5]): 9 | Crabgrass plant response rating (0 to 10 scale) (crabgrass; Preemergence, Rate 250 g/ha): 10 | Crabgrass plant response rating (crabgrass; [6]): 10 | Plant response rating, Crabgrass (crabgrass; [7]): 5 | Giant foxtail plant response rating (giant foxtail; [1]): 0 | Giant foxtail plant response rating (giant foxtail; [2]): 0 | Plant response rating, Giant foxtail (giant foxtail; [3]): 3 | Giant foxtail plant response rating (giant foxtail; [4]): 9 | Giant foxtail plant response rating (giant foxtail; [5]): 9 | Giant foxtail plant response rating (0 to 10 scale) (giant foxtail; Preemergence, Rate 250 g/ha): 10 | Giant foxtail plant response rating (giant foxtail; [6]): 10 | Plant response rating, Giant foxtail (giant foxtail; [7]): 0 | Wild oats plant response rating (wild oat; [1]): 0 | Wild oats plant response rating (wild oat; [2]): 0 | Plant response rating, Wild oats (wild oat; [3]): 2 | Wild oats plant response rating (wild oat; [4]): 0 | Wild oats plant response rating (wild oat; [5]): 2 | Wild oats plant response rating (0 to 10 scale) (wild oat; Preemergence, Rate 250 g/ha): 2 | Wild oats plant response rating (wild oat; [6]): 8 | Plant response rating, Wild oats (wild oat; [7]): 0
